The record followed here is ChEMBL document CHEMBL3822402, “Discovery of potent macrocyclic HCV NS5A inhibitors” (Bioorg Med Chem Lett, 2016).

Common to all, as to type: functional, organism-based, Hepacivirus hominis
Assay [1] relates to Hepatitis C virus. Description: Antiviral activity against HCV genotype 1b by real time PCR analysis.
Assay [2] relates to Hepatitis C virus. Description: Antiviral activity against HCV genotype 2a by real time PCR analysis.
For assay [3], the system named is Hepatitis C virus. Description: Antiviral activity against HCV genotype 1a harboring NS5A Y93H mutant by real time PCR analysis. The settings on record: subtype 1a.
Assay [4] relates to Hepatitis C virus. Description: Antiviral activity against HCV genotype 1a by real time PCR analysis. The settings on record: subtype 1a.
Assay [5] deals with Hepatitis C virus. As to the kind of experiment: Antiviral activity against HCV genotype 3a by real time PCR analysis.
The test system of assay [6] is Hepatitis C virus. As to the kind of experiment: Antiviral activity against HCV genotype 1b in presence of 10% FBS by real time PCR analysis.
Assay [7] relates to Hepatitis C virus. As to the kind of experiment: Antiviral activity against HCV genotype 1a in presence of 10% FBS by real time PCR analysis. The note with it: subtype 1a.

Take `COC(=O)N[C@H](C(=O)N1C[C@H](OC)C[C@H]1c1ncc(-c2ccc(-c3ccc4c(ccc5nc([C@@H]6[C@H]7CC[C@H](C7)N6C(=O)[C@@H](NC(=O)OC)C(C)C)[nH]c54)c3)cc2)[nH]1)C(C)C`: the EC50 in assay [1] is 0.007 nM; in assay [2] it was 0.02 nM; in assay [3], 43 nM; in assay [4] it was 0.05 nM.
For the compound `COC(=O)N[C@H](C(=O)N1CCC[C@H]1c1ncc(-c2ccc(-c3ccc4c(ccc5nc([C@@H]6CCCN6C(=O)[C@@H](NC(=O)OC)C(C)C)[nH]c54)c3)cc2O)[nH]1)C(C)C`, the EC50 in assay [1] is 0.004 nM; in assay [2], 0.2 nM; in assay [3], 201 nM; in assay [4], 0.08 nM.
As for `COC(=O)N[C@H](C(=O)N1CCC[C@H]1c1ncc(-c2ccc(-c3ccc4c(ccc5nc([C@@H]6CCCN6C(=O)[C@@H](NC(=O)OC)C(C)C)[nH]c54)c3)cc2C)[nH]1)C(C)C`, the EC50 in assay [1] was 0.002 nM; in assay [2], 0.09 nM; in assay [4], 0.02 nM.
Turning to `COC(=O)N[C@H](C(=O)N1CCC[C@H]1c1nc2ccc3cc(-c4ccc(-c5c[nH]c([C@@H]6C[C@@H]7CN6C(=O)[C@H](C(C)C)NC(=O)OCCC/C=C/CO7)n5)cc4)ccc3c2[nH]1)C(C)C`, the EC50 in assay [1] was 0.006 nM; in assay [5], 0.04 nM; in assay [3], 43 nM; in assay [4] it was 0.01 nM.
For the compound `COC(=O)N[C@H](C(=O)N1C[C@H](N)C[C@H]1c1ncc(-c2ccc(-c3ccc4c(ccc5nc([C@@H]6CCCN6C(=O)[C@@H](NC(=O)OC)C(C)C)[nH]c54)c3)cc2)[nH]1)C(C)C`, the EC50 was 0.03 nM in assay [1], 2 nM in assay [2], 987 nM in assay [3] and 0.4 nM in assay [4].
On the same counts, the results for `COC(=O)N[C@H](C(=O)N1CCC[C@H]1c1ncc(-c2ccc(-c3ccc4c(c3)c(Cl)cc3nc([C@@H]5CCCN5C(=O)[C@@H](NC(=O)OC)C(C)C)[nH]c34)cc2)[nH]1)C(C)C` are 0.003 nM, 0.004 nM, 121 nM and 0.01 nM.
As to `COC(=O)N[C@H](C(=O)N1CCC[C@H]1c1ncc(-c2ccc(-c3ccc4c(ccc5nc([C@@H]6CCCN6C(=O)[C@@H](NC(=O)OC)C(C)C)[nH]c54)c3)cc2C2CC2)[nH]1)C(C)C`, the EC50 in assay [1] came out at 0.002 nM; in assay [2], 0.2 nM; in assay [4] it was 0.1 nM.
Take `COC(=O)N[C@H](C(=O)N1CCC[C@H]1c1ncc(-c2ccc(-c3ccc4c(ccc5nc([C@@H]6[C@H]7CC[C@H](C7)N6C(=O)[C@@H](NC(=O)OC)C(C)C)[nH]c54)c3)cc2)[nH]1)C(C)C`: the EC50 in assay [1] was 0.005 nM; in assay [2], 0.02 nM; in assay [3] it was 93 nM; in assay [4], 0.02 nM.
Consider `COC(=O)N[C@H](C(=O)N1CCC[C@H]1c1nc2ccc3cc(-c4ccc5c(c4)OCCCCCCOC(=O)N[C@@H](C(C)C)C(=O)N4CCC[C@H]4c4ncc-5[nH]4)ccc3c2[nH]1)C(C)C`, for which the EC50 in assay [1] is 2 nM; in assay [3], 857 nM; in assay [4], 1 nM.
Consider `COC(=O)N[C@H](C(=O)N1C[C@H](NC(C)=O)C[C@H]1c1ncc(-c2ccc(-c3ccc4c(ccc5nc([C@@H]6CCCN6C(=O)[C@@H](NC(=O)OC)C(C)C)[nH]c54)c3)cc2)[nH]1)C(C)C`, for which the EC50 in assay [1] came out at 0.01 nM; in assay [2] it was 0.1 nM; in assay [3] it was 225 nM; in assay [4], 0.07 nM.
On the same counts, the results for `COCCO[C@@H]1C[C@@H](c2ncc(-c3ccc(-c4ccc5c(ccc6nc([C@@H]7[C@H]8CC[C@H](C8)N7C(=O)[C@@H](NC(=O)OC)C(C)C)[nH]c65)c4)cc3)[nH]2)N(C(=O)[C@@H](NC(=O)OC)C(C)C)C1` are 0.01 nM, 0.1 nM, 404 nM and above 1 nM.
`CC(C)[C@H](NC(=O)OC1(C)CC1)C(=O)N1CCC[C@H]1c1ncc(-c2ccc(-c3ccc4c(c3)c(Cl)cc3nc([C@@H]5CCCN5C(=O)[C@@H](NC(=O)OC5(C)CC5)C(C)C)[nH]c34)cc2)[nH]1`: the EC50 in assay [1] was 4 nM; in assay [4] it was above 1 nM.
Take `COC(=O)N[C@H](C(=O)N1CCC[C@H]1c1ncc(-c2ccc3oc(-c4ccc(-c5c[nH]c([C@@H]6C[C@@H]7CN6C(=O)[C@H](C(C)C)NC(=O)OC/C=C/CCCO7)n5)cc4)cc3c2)[nH]1)C(C)C`: the EC50 in assay [1] is 0.04 nM; in assay [5] it was 2 nM; in assay [3], 45 nM; in assay [4], 0.4 nM.
With `COC(=O)N[C@@H]1C[C@@H](c2ncc(-c3ccc(-c4ccc5c(ccc6nc([C@@H]7CCCN7C(=O)[C@@H](NC(=O)OC)C(C)C)[nH]c65)c4)cc3)[nH]2)N(C(=O)[C@@H](NC(=O)OC)C(C)C)C1`, the EC50 was determined as 0.009 nM in assay [1], 0.05 nM in assay [2], 80 nM in assay [3] and 0.2 nM in assay [4].
On to `COC(=O)N[C@H](C(=O)N1CCC[C@H]1c1ncc(-c2ccc3oc(-c4ccc(-c5c[nH]c([C@@H]6C[C@@H]7CN6C(=O)[C@H](C(C)C)NC(=O)OCCCCCCO7)n5)cc4)cc3c2)[nH]1)C(C)C`, for which the EC50 in assay [6] was 0.2 nM; in assay [7], 1.4 nM.
Turning to `COC(=O)N[C@H](C(=O)N1C[C@H](O)C[C@H]1c1ncc(-c2ccc(-c3ccc4c(ccc5nc([C@@H]6[C@H]7CC[C@H](C7)N6C(=O)[C@@H](NC(=O)OC)C(C)C)[nH]c54)c3)cc2)[nH]1)C(C)C`, the EC50 in assay [1] was 0.007 nM; in assay [2], 0.4 nM; in assay [3] it was 21 nM; in assay [4], 0.2 nM.
`COC(=O)N[C@H](C(=O)N1CCC[C@H]1c1nc2ccc3cc(-c4ccc(-c5c[nH]c([C@@H]6C[C@@H]7CN6C(=O)[C@H](C(C)C)NC(=O)OCCCCCCO7)n5)cc4)ccc3c2[nH]1)C(C)C`: the EC50 in assay [1] worked out at 0.01 nM; in assay [5] it was 0.5 nM; in assay [3] it was 188 nM; in assay [4], 0.006 nM.
Taken in the same sequence, the figures for `COC(=O)N[C@H](C(=O)N1CCC[C@H]1c1nc2ccc3cc(-c4ccc(-c5cnc([C@@H]6CC[C@H]7C(=O)N[C@@H](C(C)C)C(=O)N76)[nH]5)cc4)ccc3c2[nH]1)C(C)C` were 0.007 nM, 12 nM, 460 nM and 0.3 nM.
On to `CC(C)OC(=O)N[C@H](C(=O)N1CCC[C@H]1c1ncc(-c2ccc(-c3ccc4c(c3)c(Cl)cc3nc([C@@H]5CCCN5C(=O)[C@@H](NC(=O)OC(C)C)C(C)C)[nH]c34)cc2)[nH]1)C(C)C`, for which the concentration for a half-maximal effect (EC50) in assay [1] is 35 nM; in assay [4] it was above 1 nM.
Consider `COC(=O)N[C@H](C(=O)N1CCC[C@H]1c1ncc(-c2ccc(-c3ccc4c(ccc5nc([C@@H]6CCCN6C(=O)[C@@H](NC(=O)OC)C(C)C)[nH]c54)c3)cc2OCCN2CCOCC2)[nH]1)C(C)C`, for which the EC50 is 2 nM in assay [1], above 10 nM in assay [2], 1340 nM in assay [3] and above 1 nM in assay [4].
On the same counts, the results for `COCCOC(=O)N[C@H](C(=O)N1CCC[C@H]1c1ncc(-c2ccc(-c3ccc4c(c3)c(Cl)cc3nc([C@@H]5CCCN5C(=O)[C@@H](NC(=O)OCCOC)C(C)C)[nH]c34)cc2)[nH]1)C(C)C` are 15 nM, above 1 nM, above 1000 nM and above 1 nM.
